{"source": "patent US7723072B2", "about": "“Polypeptide factor from a thermophilic eubacterial species and use thereof in the production of functional, heterologous proteins in an expression host” (University of Limerick, priority 2003, dated 2010)", "assay_type_in_all_cases": "cell-based", "key": {"E. coli JM83": {"system": "E. coli JM83", "test": "Minimal inhibitory concentrations (MICs) for metal cations, E. coli JM83", "details": "40 h at 37° C."}, "[1]": {"system": "E. coli JM83 containing pUC"}, "[2]": {"system": "E. coli JM83 containing pUC with cloned czrB", "test": "Minimal inhibitory concentrations (MICs) for metal cations, JM83 containing pUC with cloned czrB", "details": "clone +pUC-czrB"}, "E. coli cultures [3]": {"system": "E. coli cultures", "test": "Anti-FITC ELISA of phage-displayed functional antibody", "details": "10 and 22 h after induction", "experimental": "(§1) Individual clones were analysed by restriction digestion after 22 h of induction to confirm that they contained both the Thermus insert and the recombinant antibody gene. […] Immunoplate wells (Nunc) were coated with 100 μl of FITC-BSA and blocked with 5% skimmed milk in PBST. After washing, 100 μl of phage solutions containing 0.5% skimmed milk were added and incubated for 2 h at 25° C. Phage particles were detected using a peroxidase-conjugated anti-M13 antibody (1:3000 in PBST; Amersham Pharmacia Biotech Inc.) and development was carried out using a BM Blue POD soluble substrate (Roche Diagnostics). After stopping the reaction using 25 μl of 1 N H2SO4, the absorbance was read at 405 nm. […] The results are depicted in FIGS. 6 and 7.\nFIG. 7 depicts ELISA analysis of clones expressing czrB. […] Results are shown for samples taken 10 and 22 h after induction."}, "E. coli cells [4]": {"system": "E. coli cells", "test": "Growth (OD600) of E. coli clones during bacteriophage and recombinant antibody production", "details": "pHB102 phagemid, during phage and antibody production", "experimental": "E. coli cells harbouring the Thermus library were inoculated to an OD600<0.05 in 10 ml 2xYT medium containing tetracycline (15 μg/ml), additional salts (8.6 mM NaCl; 2.5 mM KCl; 10 mM MgCl2) and 0.4% glucose. After 1 h at 37° C., 30 μg/ml chloramphenicol was added, followed by 10^10 pfu of helper phage (VCSM13 helper phage; Stratagene) at an OD600 of 0.5. Incubation at 50° C. for 5 min was followed by the addition of 50 ml 2xYT containing tetracycline, chloramphenicol, additional salts and 0.5 mM isopropyl-β-D-thiogalactoside (IPTG). The culture was shaken at 40° C. for 2 h and, after the addition of 30 μg/ml kanamycin, grown for a further 12-14 h at 40° C. Phage particles were precipitated from culture supernatants by two PEG precipitation steps and resuspended in 1 ml PBS (8 g NaCl, 0.24 g KH2PO4, 1.44 g Na2HPO4, 0.2 g KCl in 1 L, pH 7.4). Immunotubes (Nunc) were coated overnight at 4° C. with 1 μg/ml fluorescein-isothiocyanate coupled to bovine serum albumin (FITC-BSA) (Bothmann, H. and Plückthun, A (1998) supra) in PBS. […]\nE. coli cells infected with phage were grown as described in Example 1. The OD600 was read at hourly intervals for the first 8-10 h after induction. […]"}, "E. coli cultures [5]": {"system": "E. coli cultures", "test": "Phage titers of E. coli clones", "details": "pHB102 vs pHB102-czrB; 10 and 22 h after induction", "experimental": "as §1\nFIG. 6 depicts phage titers of clones expressing czrB. The phage titers of clones containing pHB102 phagemid vector or pHB102-czrB expressed as colony forming units (cfu) were determined 10 and 22 h after induction."}, "E. coli cells [6]": {"system": "E. coli cells", "test": "Growth of E. coli with czrB expressed from lac promoter in pUC-based vector", "details": "Plac induction; no bacteriophage, no recombinant antibody", "text": "To investigate this theory further, czrB was expressed from a lac promoter in a standard pUC-based expression vector, in the absence of bacteriophage particles and the recombinant antibody used in experiments thus far. […] This raises the possibility that CzrB, in its full length form or as a truncated version, might function as an “universal chaperone”, which would facilitate the expression of any recombinant or heterologous proteins produced in an E. coli host."}, "E. coli cells [7]": {"system": "E. coli cells", "test": "Intracellular zinc concentration in E. coli clones (atomic absorption)", "details": "1 h incubation in 0, 1, 2, 5 mM extracellular zinc; vs JM83 and pUC alone", "text": "Metal resistances of the type observed with the czrB clones can be the result of metal sequestering or modification of metal transport processes. However, based on reports of CzrB homologues in other organisms it was postulated that the protein CzrB provided resistance to heavy metal ions by an efflux mechanism rather than by metal sequestering. Therefore, the ability of the T. thermophilus CzrB protein to pump zinc ions out of the E. coli cells in which it was expressed was investigated. Intracellular zinc concentrations were measured as follows: E. coli clones were grown at 37° C. in LB medium (100 μg/ml ampicillin, 25 μg/ml streptomycin) in the presence or absence of 165 μM ZnCl2 until an OD600 of 1.0 was reached. After addition of 1, 2 or 5 mM ZnCl2, growth was continued for 30 min, 1 h or 2 h, with control cultures grown in the absence of ZnCl2. […] The zinc concentration was measured in the supernatant using an atomic absorption spectrophotometer (Varian SpectrAA-400 Plus), with standard solutions prepared immediately before use from commercial standards (Fisher Scientific). […] The results are shown in FIG. 3 which depicts a quantification of intracellular zinc levels in E. coli clones: JM83 (“JM83”), JM83 containing pUC (“pUC”), and JM83 containing pUC-czrB without (“czrB”) and with (“czrB (Zn)”) a zinc pre-induction step. […]"}, "[8]": {"details": "clone +pUC, pre-induction cadmium (80 μM CdCl2)"}, "[9]": {"details": "clone +pUC, pre-induction cobalt (220 μM CoCl2)"}, "[10]": {"details": "clone +pUC, pre-induction none, 40 h at 37° C."}, "[11]": {"details": "clone +pUC, pre-induction zinc (165 μM ZnCl2)"}, "[12]": {"details": "pre-induction cadmium (80 μM CdCl2)"}, "[13]": {"details": "pre-induction cobalt (220 μM CoCl2)"}, "[14]": {"details": "pre-induction zinc (165 μM ZnCl2)"}}, "note": "Where two headings read alike, the source gives them in different places."}
{"molecule": "[Cl-].[Cl-].[Zn+2]", "note": "[Zinc, ZnCl2]", "values": [{"measurement": "MIC", "setting": "E. coli JM83; clone JM83, pre-induction none", "value": 2000, "unit": "µM"}, {"measurement": "MIC", "setting": "[1]; [8]", "value": 1600, "unit": "µM"}, {"measurement": "MIC", "setting": "[1]; [9]", "value": 1600, "unit": "µM"}, {"measurement": "MIC", "setting": "[1]; [10]", "value": 1600, "unit": "µM"}, {"measurement": "MIC", "setting": "[1]; [11]", "value": 1600, "unit": "µM"}, {"measurement": "MIC", "setting": "[2]; [12]", "value": 2200, "unit": "µM"}, {"measurement": "MIC", "setting": "[2]; [13]", "value": 2100, "unit": "µM"}, {"measurement": "MIC", "setting": "[2]; pre-induction none", "value": 1900, "unit": "µM"}, {"measurement": "MIC", "setting": "[2]; [14]", "value": 2500, "unit": "µM"}]}
{"molecule": "[Cl][Cd][Cl]", "note": "[Cadmium, CdCl2]", "values": [{"measurement": "MIC", "setting": "E. coli JM83; clone JM83, pre-induction none", "value": 900, "unit": "µM"}, {"measurement": "MIC", "setting": "[1]; [8]", "value": 700, "unit": "µM"}, {"measurement": "MIC", "setting": "[1]; [9]", "value": 900, "unit": "µM"}, {"measurement": "MIC", "setting": "[1]; [10]", "value": 900, "unit": "µM"}, {"measurement": "MIC", "setting": "[1]; [11]", "value": 900, "unit": "µM"}, {"measurement": "MIC", "setting": "[2]; [12]", "value": 900, "unit": "µM"}, {"measurement": "MIC", "setting": "[2]; [13]", "value": 1100, "unit": "µM"}, {"measurement": "MIC", "setting": "[2]; pre-induction none", "value": 1000, "unit": "µM"}, {"measurement": "MIC", "setting": "[2]; [14]", "value": 1000, "unit": "µM"}]}
{"molecule": "[Cl-].[Cl-].[Co+2]", "note": "[Cobalt, CoCl2]", "values": [{"measurement": "MIC", "setting": "E. coli JM83", "value": 2100, "unit": "µM"}, {"measurement": "MIC", "setting": "[1]", "value": 2100, "unit": "µM"}, {"measurement": "MIC", "setting": "[1]; 40 h at 37° C.", "value": 2100, "unit": "µM"}, {"measurement": "MIC", "setting": "[2]; [12]", "value": 2100, "unit": "µM"}, {"measurement": "MIC", "setting": "[2]; [13]", "value": 2100, "unit": "µM"}, {"measurement": "MIC", "setting": "[2]; pre-induction none", "value": 2100, "unit": "µM"}, {"measurement": "MIC", "setting": "[2]; [14]", "value": 2100, "unit": "µM"}]}
{"molecule": "partial czrB: Truncated form of the CzrB protein, 92 amino acids (SEQ ID NO: 2), C-terminal cytoplasmic tail (protein, Thermus thermophilus CzrB) MDEGLPPEEVERIRAFLQERIRGRALEVHDLKTRRAGPRSFLEFHLVVRGDTPVEEAHRLCDELERALAQAFPGLQATIHVEPEGERKRTNP", "values": [{"measurement": "amount of functional antibody relative to cultures containing the vector alone", "setting": "E. coli cultures [3]", "value": "intermediate between the full-length gene and the control culture"}, {"measurement": "growth characteristics", "setting": "E. coli cells [4]", "value": "intermediate between the full-length czrB clone and cells containing the phagemid vector"}, {"measurement": "phage titres relative to cultures containing the vector alone", "setting": "E. coli cultures [5]", "value": "intermediate between the full-length gene and the control culture"}]}
{"molecule": "czrB: Polypeptide factor from Thermus thermophilus, 291 amino acids (SEQ ID NO: 1), co-expressed in E. coli (protein, Thermus thermophilus CzrB) MAEGAARLSLVVALLVLGLKAFAYLLTGSVALLSDALESLVNVAAALAALLALRVARKPPDQNHPFGHTKAEYVSAVLEGVLVVLAALWIAREALPRLLHPVPLEGLGLGLGVSLLASLLNGLLAYHLLKEGRRHRSPALTADGYHVLSDVLTSLGVVLGVGLAGLTGLWVLDPLLALAVAGQILFLGYRIVRESVGGLMDEGLPPEEVERIRAFLQERIRGRALEVHDLKTRRAGPRSFLEFHLVVRGDTPVEEAHRLCDELERALAQAFPGLQATIHVEPEGERKRTNP", "values": [{"measurement": "amount of functional antibody relative to cultures containing the vector alone", "setting": "E. coli cultures [3]", "value": "more than twice"}, {"measurement": "cell densities attained relative to cells containing just the phagemid vector", "setting": "E. coli cells [4]", "value": "greater than 2 fold"}, {"measurement": "E. coli cell growth relative to cells containing the vector alone", "setting": "E. coli cells [6]", "value": "same pattern of E. coli cell growth"}, {"measurement": "phage titres relative to cultures containing the vector alone", "setting": "E. coli cultures [5]", "value": "two-fold higher"}, {"measurement": "levels of zinc in E. coli cells", "setting": "E. coli cells [7]", "value": "significantly reduce"}]}
